Experimental data published in US7531333B2, “Process for producing isoprenoid compounds by microorganisms and a method for screening compounds with antibiotic or weeding activity” (Kyowa Hakko Kogyo Co., Ltd., priority 1998, dated 2009).
Where two headings read alike, the source gives them in different places.

Tests used:
[1] = molecular target: T1, 1-deoxy-D-xylulose 5-phosphate reductoisomerase (Escherichia coli, UniProt P45568); experiment: Enzymatic activity of yaeM gene product (NADPH decrease, absorbance at 340 nm); format: biochemical, E. coli
T1 construct: made in house; host or cells: E. coli M15/pREP4
T1 sequence (P45568 1-398 R277V/T278R/P279Q/I280L/A281P/H282T/T283P/M284W): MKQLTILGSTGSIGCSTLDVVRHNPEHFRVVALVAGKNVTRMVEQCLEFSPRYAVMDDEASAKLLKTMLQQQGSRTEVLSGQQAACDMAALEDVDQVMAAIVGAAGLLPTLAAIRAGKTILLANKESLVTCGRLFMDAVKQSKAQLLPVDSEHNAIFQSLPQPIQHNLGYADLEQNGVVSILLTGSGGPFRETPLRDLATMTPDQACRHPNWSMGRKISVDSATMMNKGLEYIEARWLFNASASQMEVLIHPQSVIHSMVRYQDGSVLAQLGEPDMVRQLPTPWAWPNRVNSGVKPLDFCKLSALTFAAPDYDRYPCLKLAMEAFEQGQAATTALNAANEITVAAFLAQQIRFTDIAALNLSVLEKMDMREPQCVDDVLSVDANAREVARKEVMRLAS
Protocol: (§1) […] of 1-deoxy-D-xylulose 5-phosphate (final concentration) synthesized as described above was added to 1 ml of a reaction solution containing […] Tris-hydrochloric acid (pH 7.5), […] MmCl2, […] NADPH and yaeM gene product obtained in Example 8 (2) ? , and then incubated at 37° C.
The enzymological characteristics of 1-deoxy-D-xylulose 5-phosphate reductoisomerase were examined using 1 ml of the reaction system as described in Example 8 (2) ? . Here, 1 unit is defined as the activity to oxidize 1 mmol of NADPH per a minute.

yaeM-deleted strain = experiment: Cell growth of yaeM-disrupted strain on LB agar with 2-C-methyl-D-erythritol; format: cell-based, E. coli; conditions: 1 g/l of 2-C-methyl-D-erythritol, 37° C., 2 days
Protocol: (§2) The yaeM-disrupted strain produced as described above and its parent strain FS1576 were spread on LB agar medium and the same medium containing 1 g/l of 2-C-methyl-D-erythritol, then cultured at 37° C.

FS1576 = experiment: Cell growth of parent strain FS1576 on LB agar with 2-C-methyl-D-erythritol; format: cell-based, E. coli; conditions: FS1576, 1 g/l of 2-C-methyl-D-erythritol, 37° C., 2 days
Protocol: as §2

E. coli W3110 = experiment: Growth of E. coli W3110 on LB agar medium containing fosmidomycin; format: cell-based; conditions: 37° C., two days
Protocol: E. coli W3110 was spread on LB agar medium, the same medium containing 3.13 mg/l of fosmidomycin, and the same medium containing 3.13 mg/l of fosmidomycin and 0.25 g/l of 2-C-methyl-D-erythritol, then cultured at 37° C.

[2] = molecular target: T1, 1-deoxy-D-xylulose 5-phosphate reductoisomerase; format: biochemical, E. coli; conditions: various concentrations, 37° C., FIG. 4
Protocol: as §1

[3] = additive at 1 mol/l, N.D. = no activity was detected, 1 unit = activity to oxidize 1 mmol of NADPH per minute

## CC(=O)[C@@H](O)[C@H](O)CO [1-deoxy-D-xylulose]
[1]
  Reaction when used as substrate instead of 1-deoxy-D-xylulose 5-phosphate: No reaction occurred

## [Ca+2].[Cl-].[Cl-] [CaCl2]
[1]; [3]
  Specific Activity: 0.2 units/mg protein

## [Cl-].[Cl-].[Co+2] [CoCl2]
[1]
  Specific Activity: 6.0 units/mg protein

## C[C@](O)(CO)[C@H](O)CO [ME, 2-C-methyl-D-erythritol]
yaeM-deleted strain
  Cell growth on LB + ME: +
FS1576
  Cell growth on LB + ME: +

## [Cl-].[Cl-].[Mg+2] [MgCl2]
[1]; [3]
  Specific Activity: 4.0 units/mg protein

## [Cl][Mn][Cl] [MnCl2]
[1]; [3]
  Specific Activity: 11.8 units/mg protein

## NC(=O)C1=CN([C@@H]2O[C@H](COP(=O)(O)OP(=O)(O)OC[C@H]3O[C@@H](n4cnc5c(N)ncnc54)[C@H](O)[C@@H]3O)[C@@H](O)[C@H]2O)C=CC1 [NADH]
[1]; relative to activity with NADPH
  Activity when NADPH was replaced with NADH: below 1/100

## NC(=O)c1ccc[n+]([C@@H]2O[C@H](COP(=O)([O-])OP(=O)(O)OC[C@H]3O[C@@H](n4cnc5c(N)ncnc54)[C@H](OP(=O)(O)O)[C@@H]3O)[C@@H](O)[C@H]2O)c1 [NADP]
[1]; in the presence of MnCl2
  Km: 7.4 µM

## O=S(=O)([O-])[O-].[Ni+2] [NiSO4]
[1]; [3]
  Specific Activity: 0.2 units/mg protein

## O=S(=O)([O-])[O-].[Zn+2] [ZnSO4]
[1]; [3]
  Specific Activity: 0.3 units/mg protein

## O=CN(O)CCCP(=O)(O)O [fosmidomycin, 3-(N-formyl-N-hydroxyamino)propylphosphonic acid]
E. coli W3110; 3.13 mg/l of fosmidomycin and 0.25 g/l of 2-C-methyl-D-erythritol
  Growth of the microorganism on LB agar medium: could grow
E. coli W3110; 3.13 mg/l of fosmidomycin only
  Growth of the microorganism on LB agar medium: no microorganism grew
[2]
  Inhibition of 1-deoxy-D-xylulose 5-phosphate reductoisomerase: inhibit
